Measured values as given in paper PMC9234671, “Molecular determinants of αVβ5 localization in flat clathrin lattices – role of αVβ5 in cell adhesion and proliferation” (Journal of Cell Science, 2022).

System: β5 Ser-759/762 phosphorylation
Assay: Mass spectrometry of β5 immunoprecipitates: β5 phosphorylation
Format: cell-based, human
Source text: Journal of Cell Science | Peer review history […]
opinion most interesting findings linked to the serine/threonine phosphorylation sites.
Response: We have now changed the t itle and abstract to better emphasize the interesting and novel findings (page 1 -2).
Reviewer 2 Comments for the author...
There are some points that the authors may want to consider: […]
only very limited binding to kindlin-1/2. Furthermore, the phosphomimetic β5-S759/762E mutant promotes localization in FCLs. In the BirA experiments, the authors detect no biotinylation of clathrin adaptors ARH and NUMB with the b5/b1 or b5/b1 chimeras, in contrast to the b5 wt. Is this also the case for clathrin or AP2-mu, established components of FCL?
Response: We thank the reviewer for his/her useful remark. […]
The peptide pull-downs in figure 2 are a little problematic given the high Bg binding of NUMB and ARH to the b1 scr peptide. […] In addition, quantifications from several biological repeats of the pulldowns might help t o establish the reproducibility and statistical significance of the differences indicated by the authors in the text. […]
Figure 3. […] Specifically, we assessed whether phosphorylation of […]
of β5 at S759 and S762 could be detected (discussed in the middle of page 13).
Figure 4. is there a reason for using talin rather than vinculin staining as a FA marker here? […] Could this be analysed and mentioned in the text? […]

COC[C@@H]([C@H](O)[C@H](O)C(=O)NCC[C@H](C)c1nc(/C=C/C[C@@H]2O[C@]3(C[C@@H](O)[C@@H]2C)O[C@H]([C@H](C[C@H](O)[C@H](C)[C@H](O)[C@H](C)/C=C(C)/C(C)=C/C=C/C(C)=C\C#N)OC)[C@H](OP(=O)(O)O)C3(C)C)co1)N(C)C [calyculin A]
detection of β5 phosphorylation at S759 and S762 (25 nM calyculin for 20 min, PA-JEB/β4 keratinocytes, anti-β5 immunoprecipitation, MS/MS): no phosphorylation | detection of β5 phosphorylation at Ser-759/762 (calyculin A-treated cells, mass spectrometry of β5 immunoprecipitates): unsuccessful
